One test deals with T1, Estrogen receptor (Homo sapiens, UniProt P03372).
T1 sequence (P03372 whole entry): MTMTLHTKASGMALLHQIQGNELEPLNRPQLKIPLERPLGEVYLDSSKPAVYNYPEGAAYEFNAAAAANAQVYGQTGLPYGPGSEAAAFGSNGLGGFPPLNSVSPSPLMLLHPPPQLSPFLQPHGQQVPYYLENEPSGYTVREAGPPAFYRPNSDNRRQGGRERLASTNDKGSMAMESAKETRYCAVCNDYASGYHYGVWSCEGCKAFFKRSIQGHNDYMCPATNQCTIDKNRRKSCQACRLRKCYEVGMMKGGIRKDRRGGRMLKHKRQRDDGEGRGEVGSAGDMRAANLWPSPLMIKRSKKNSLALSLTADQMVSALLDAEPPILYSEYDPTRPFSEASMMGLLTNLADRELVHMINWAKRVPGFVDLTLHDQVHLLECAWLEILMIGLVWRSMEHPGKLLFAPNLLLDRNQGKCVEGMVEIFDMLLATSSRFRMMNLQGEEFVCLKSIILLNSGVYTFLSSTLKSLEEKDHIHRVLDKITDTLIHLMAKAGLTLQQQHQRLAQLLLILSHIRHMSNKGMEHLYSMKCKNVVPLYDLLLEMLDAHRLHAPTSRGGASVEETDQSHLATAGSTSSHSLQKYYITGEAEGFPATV
Kind of test: Inhibition of ER (unknown origin) by luciferase reporter assay.

Test [1] in a line: Downregulation of ER in human MCF7 cells assessed as […] measured after 2 days EIA assay. It is filed as functional, cell-based. The conditions noted are these: MCF7, 48 h.
Another test has as its system Rattus norvegicus. Kind of test: Anti-uterotrophic activity in rat at 10 mg/kg, sc administered once daily for 3 days relative to control. Type of test: functional. The note with it: time 3 day.
In test [2] the test system is MCF7. In words: Antiproliferative activity against human MCF7 cells. It is filed as functional, cell-based.
Test [3] in a line: Inhibition of ESR1 Y537S mutant LBD (unknown origin) transfected in SK-BR-3 cells measured after 22 hrs by luciferase assay. It is filed as cell-based. The conditions noted are these: Homo sapiens, SK-BR-3, 22 h.
The test system of test [4] is MCF7. Kind of test: Antiproliferative activity against human MCF7 cells assessed as reduction in cell proliferation. Type of test: functional, cell-based.

One may read the IC50 as the concentration needed to halve the response being measured.

On to `C[C@]12CCC3c4ccc(O)cc4C[C@@H](CCCCCCCC[C@H](CCCC(F)(F)C(F)(F)C(F)(F)C(F)(F)F)C(=O)O)C3C1CCC2=O` (some centres not stated), for which the IC50 was determined as 49.8 nM against Estrogen receptor and 24 nM in test [1].
Consider `CCCCN(C)C(=O)CCCCCCCCCC[C@@H]1Cc2cc(O)ccc2C2CC[C@@]3(C)C(CC[C@@H]3O)C21` (some centres not stated), for which the Activity in the test with Rattus norvegicus is listed as 105%.
On to `CN(CCCCC[C@@H]1Cc2cc(O)ccc2C2C1C1CC[C@H](O)[C@@]1(C)C[C@@H]2F)CCCSCCCC(F)(F)C(F)(F)F` (some centres not stated), for which, in the test on MCF7 [2], the midpoint of inhibition, the IC50, lay at 2.4 nM.
In the test on Rattus norvegicus, `CCCCNC(=O)CCCCCCCCCC[C@@H]1Cc2cc(O)ccc2C2CC[C@@]3(C)C(CC[C@@H]3O)C21` (some centres not stated) had an Activity of 100%.
In the test on MCF7 [2], `CN(CCCCCCC(F)(F)C(F)(F)C(F)(F)C(F)(F)F)CCCCC[C@@H]1Cc2cc(O)ccc2C2C1C1CC[C@H](O)[C@@]1(C)C[C@@H]2F` (some centres not stated) displayed an IC50 of 1.9 nM.
For the compound `CC1=C(c2ccc(O)cc2)[C@H](c2ccc(OCCN3CC[C@@H](C)C3)cc2)Oc2cc(O)ccc21`, the results for the IC50 (in the test with MCF7 [2]; in test [3]) were 9.2 nM and 8 nM, respectively.
In the test on MCF7 [2], `C[C@]12C[C@H](c3ccc(OCCCCCS(=O)(=O)CCCC(F)(F)C(F)(F)F)cc3)C3c4ccc(O)cc4CCC3C1CC[C@@H]2O` (some centres not stated) came in with an IC50 of 0.13 nM.
`CCNCCc1ccc(CN(CC)c2cc(OC)ccc2[C@@H]2CCc3cc(O)ccc3C2)cc1` [ELACESTRANT]: the IC50 in the test with MCF7 [4] was 4.2 nM.
On to `C[C@]12CC[C@@H]3c4ccc(O)cc4C[C@@H](CCCCCCCCC[S+]([O-])CCCC(F)(F)C(F)(F)F)[C@H]3[C@@H]1CC[C@@H]2O` (some centres not stated) [FULVESTRANT], for which the IC50 with MCF7 [2] is 0.35 nM; in test [3], 22 nM.
